{"source": "patent US10653744B2", "about": "“Formulations and methods for treating ulcerative colitis” (priority 2016, dated 2020)", "key": {"[1]": {"system": "TNBS-induced acute colitis", "settings": "oral treatment, murine model; cited from earlier work"}, "[2]": {"system": "DSS-induced acute colitis", "settings": "oral treatment, murine model; cited from earlier work"}, "[3]": {"system": "patients with mild to moderate ulcerative colitis", "assay": "Double-blind, placebo-controlled, four-week study of rectal dolcanatide in ulcerative colitis patients", "format": "in vivo, human", "settings": "for improvement of ulcerative colitis symptoms compared with placebo-treated patients: 6 mg dissolved in saline, intra-rectally every evening for 28 days, 28 patients", "method": "A double-blind, placebo-controlled, four-week study evaluating 28 patients with mild-to-moderate ulcerative colitis was conducted. Patients received 6 mg Dolcanatide dissolved in saline administered intra-rectally each evening for 28 days.\nA double-blind, placebo-controlled, four week study was performed evaluating 28 patients with mild to moderate ulcerative colitis. Subjects were treated with either saline (placebo) or Dolcanatide (SP-333; SEQ ID NO: 9). Six mg of Dolcanatide was dissolved in saline and administered intra-rectally every evening for 28 days."}}, "note": "Positions of bridges follow the written chain, without caps; N, C: chain ends. Non-standard residues stand in square brackets, D forms with d. No end group written: not given here."}
{"substance": "dAsn^1-Asp^2-Glu^3-Cys^4-Glu^5-Leu^6-Cys^7-Val^8-Asn^9-Val^10-Ala^11-Cys^12-Thr^13-Gly^14-Cys^15-dLeu^16 ([dN]DECELCVNVACTGC[dL]; disulfide 4-12, 7-15; ends not checked) [Dolcanatide]", "values": [{"measurement": "effect on TNBS-induced acute colitis", "setting": "[1]", "result": "ameliorate"}, {"measurement": "effect on DSS-induced acute colitis", "setting": "[2]", "result": "ameliorate"}, {"measurement": "improvement of ulcerative colitis symptoms compared with placebo-treated patients", "setting": "[3]", "result": "Improved Ulcerative Colitis Symptoms"}, {"measurement": "improvement of ulcerative colitis symptoms compared with placebo-treated patients", "setting": "[3]; listed as dolcanatide", "result": "clear signals of improvement"}, {"measurement": "safety and tolerability", "setting": "[3]; 6 mg intra-rectally each evening for 28 days", "result": "safe and well tolerated"}, {"measurement": "remission from ulcerative colitis symptoms", "setting": "[3]; after 28 days of treatment, 6 mg intra-rectally every evening", "result": "in remission from their ulcerative colitis symptoms"}]}
